Columns and labels:
K562 = test: NCI in vitro DTP human cell line screen, K562; format: cell-based; settings: Leukemia, 1.00E−5 Molar
Method: (§1) Then, a cell toxicity assay of the cancer lines made by National Cancer Institute will be discussed as follows. The cell toxicity assay is performed by choosing ten compounds (existing certification numbers) from the 59 compounds disclosed in the present invention first.

A control cell lines = test: MTT assay, A control cell lines (lung cancer cell); format: cell-based
Description: Please refer to Table 1 and FIGS. 4A-4C. According to a MTT assay (Table 1), various cell viabilities of the A control cell lines can be obtained and illustrated in FIG. 4A while the compounds No. 2˜30 are used to treat A control cell lines, wherein A control cell lines are lung cancer cell.

SNB-75 = test: NCI in vitro DTP human cell line screen, SNB-75; format: cell-based; settings: CNS Cancer, 1.00E−5 Molar
Method: as §1

BT-549 = test: NCI in vitro DTP human cell line screen, BT-549; format: cell-based; settings: Breast Cancer, 1.00E−5 Molar
Method: as §1

UACC-62 = test: NCI in vitro DTP human cell line screen, UACC-62; format: cell-based; settings: Melanoma, 1.00E−5 Molar
Method: as §1

RXF 393 = test: NCI in vitro DTP human cell line screen, RXF 393; format: cell-based; settings: Renal Cancer, 1.00E−5 Molar
Method: as §1

NCI-H322M = test: NCI in vitro DTP human cell line screen, NCI-H322M; format: cell-based; settings: Non-Small Cell Lung Cancer, 1.00E−5 Molar
Method: as §1

SK-MEL-28 = test: NCI in vitro DTP human cell line screen, SK-MEL-28; format: cell-based; settings: Melanoma, 1.00E−5 Molar
Method: as §1

TK-10 = test: NCI in vitro DTP human cell line screen, TK-10; format: cell-based; settings: Renal Cancer, 1.00E−5 Molar
Method: as §1

UACC-257 = test: NCI in vitro DTP human cell line screen, UACC-257; format: cell-based; settings: Melanoma, 1.00E−5 Molar
Method: as §1

SR = test: NCI in vitro DTP human cell line screen, SR; format: cell-based; settings: Leukemia, 1.00E−5 Molar
Method: as §1

UO-31 = test: NCI in vitro DTP human cell line screen, UO-31; format: cell-based; settings: Renal Cancer, 1.00E−5 Molar
Method: as §1

MDA-MB-435 = test: NCI in vitro DTP human cell line screen, MDA-MB-435; format: cell-based; settings: Melanoma, 1.00E−5 Molar
Method: as §1

HL-60(TB) = test: NCI in vitro DTP human cell line screen, HL-60(TB); format: cell-based; settings: Leukemia, 1.00E−5 Molar
Method: as §1

NCI-H23 = test: NCI in vitro DTP human cell line screen, NCI-H23; format: cell-based; settings: Non-Small Cell Lung Cancer, 1.00E−5 Molar
Method: as §1

SF-295 = test: NCI in vitro DTP human cell line screen, SF-295; format: cell-based; settings: CNS Cancer, 1.00E−5 Molar
Method: as §1

PC-3 = test: NCI in vitro DTP human cell line screen, PC-3; format: cell-based; settings: Prostate Cancer, 1.00E−5 Molar
Method: as §1

786-0 = test: NCI in vitro DTP human cell line screen, 786-0; format: cell-based; settings: Renal Cancer, 1.00E−5 Molar
Method: as §1

[1] = MTT assay, HEL299 fibroblast; format: cell-based; settings: human
Description: Please refer to FIG. 4C, various cell viabilities of the HEL299 cell lines can be obtained through the MTT assay while the compounds No. 1˜30 are used to treat HEL299 cell lines, wherein HEL299 cell lines are fibroblast.

HCT-15 = test: NCI in vitro DTP human cell line screen, HCT-15; format: cell-based; settings: Colon Cancer, 1.00E−5 Molar
Method: as §1

OVCAR-4 = test: NCI in vitro DTP human cell line screen, OVCAR-4; format: cell-based; settings: Ovarian Cancer, 1.00E−5 Molar
Method: as §1

SK-MEL-5 = test: NCI in vitro DTP human cell line screen, SK-MEL-5; format: cell-based; settings: Melanoma, 1.00E−5 Molar
Method: as §1

OVCAR-5 = test: NCI in vitro DTP human cell line screen, OVCAR-5; format: cell-based; settings: Ovarian Cancer, 1.00E−5 Molar
Method: as §1

A3 cell lines = test: MTT assay, A3 cell lines (lung cancer stem cell); format: cell-based
Description: Please to FIG. 4B, various cell viabilities of the A3 cell lines can be obtained through the MTT assay and illustrated in FIG. 4B while the compounds No. 1˜30 are used to treat A3 cell lines, wherein A3 cell lines are lung cancer stem cell.

MDA-MB-231/ATCC = test: NCI in vitro DTP human cell line screen, MDA-MB-231/ATCC; format: cell-based; settings: Breast Cancer, 1.00E−5 Molar
Method: as §1

EKVX = test: NCI in vitro DTP human cell line screen, EKVX; format: cell-based; settings: Non-Small Cell Lung Cancer, 1.00E−5 Molar
Method: as §1

RPMI-8226 = test: NCI in vitro DTP human cell line screen, RPMI-8226; format: cell-based; settings: Leukemia, 1.00E−5 Molar
Method: as §1

NCI-H460 = test: NCI in vitro DTP human cell line screen, NCI-H460; format: cell-based; settings: Non-Small Cell Lung Cancer, 1.00E−5 Molar
Method: as §1

MALME-3M = test: NCI in vitro DTP human cell line screen, MALME-3M; format: cell-based; settings: Melanoma, 1.00E−5 Molar
Method: as §1

KM12 = test: NCI in vitro DTP human cell line screen, KM12; format: cell-based; settings: Colon Cancer, 1.00E−5 Molar
Method: as §1

SK-OV-3 = test: NCI in vitro DTP human cell line screen, SK-OV-3; format: cell-based; settings: Ovarian Cancer, 1.00E−5 Molar
Method: as §1

HS 578-T = test: NCI in vitro DTP human cell line screen, HS 578-T; format: cell-based; settings: Breast Cancer, 1.00E−5 Molar
Method: as §1

T-47D = test: NCI in vitro DTP human cell line screen, T-47D; format: cell-based; settings: Breast Cancer, 1.00E−5 Molar
Method: as §1

U251 = test: NCI in vitro DTP human cell line screen, U251; format: cell-based; settings: CNS Cancer, 1.00E−5 Molar
Method: as §1

NCI/ADR-RES = test: NCI in vitro DTP human cell line screen, NCI/ADR-RES; format: cell-based; settings: Ovarian Cancer, 1.00E−5 Molar
Method: as §1

MDA-MB-468 = test: NCI in vitro DTP human cell line screen, MDA-MB-468; format: cell-based; settings: Breast Cancer, 1.00E−5 Molar
Method: as §1

OVCAR-3 = test: NCI in vitro DTP human cell line screen, OVCAR-3; format: cell-based; settings: Ovarian Cancer, 1.00E−5 Molar
Method: as §1

IGROV1 = test: NCI in vitro DTP human cell line screen, IGROV1; format: cell-based; settings: Ovarian Cancer, 1.00E−5 Molar
Method: as §1

SF-539 = test: NCI in vitro DTP human cell line screen, SF-539; format: cell-based; settings: CNS Cancer, 1.00E−5 Molar
Method: as §1

LOX IMVI = test: NCI in vitro DTP human cell line screen, LOX IMVI; format: cell-based; settings: Melanoma, 1.00E−5 Molar
Method: as §1

SF-268 = test: NCI in vitro DTP human cell line screen, SF-268; format: cell-based; settings: CNS Cancer, 1.00E−5 Molar
Method: as §1

HCT-116 = test: NCI in vitro DTP human cell line screen, HCT-116; format: cell-based; settings: Colon Cancer, 1.00E−5 Molar
Method: as §1

60 cancer lines = test: NCI cell toxicity assay of 60 cancer lines, whole panel summary; format: cell-based, human; settings: mean over all cell lines; 1.00E−5 Molar
Method: as §1

DU145 = test: NCI in vitro DTP human cell line screen, DU145; format: cell-based; settings: Prostate Cancer, 1.00E−5 Molar
Method: as §1

NCI-H522 = test: NCI in vitro DTP human cell line screen, NCI-H522; format: cell-based; settings: Non-Small Cell Lung Cancer, 1.00E−5 Molar
Method: as §1

MCF7 = test: NCI in vitro DTP human cell line screen, MCF7; format: cell-based; settings: Breast Cancer, 1.00E−5 Molar
Method: as §1

MOLT-4 = test: NCI in vitro DTP human cell line screen, MOLT-4; format: cell-based; settings: Leukemia, 1.00E−5 Molar
Method: as §1

HCC-2998 = test: NCI in vitro DTP human cell line screen, HCC-2998; format: cell-based; settings: Colon Cancer, 1.00E−5 Molar
Method: as §1

OVCAR-8 = test: NCI in vitro DTP human cell line screen, OVCAR-8; format: cell-based; settings: Ovarian Cancer, 1.00E−5 Molar
Method: as §1

SK-MEL-2 = test: NCI in vitro DTP human cell line screen, SK-MEL-2; format: cell-based; settings: Melanoma, 1.00E−5 Molar
Method: as §1

ACHN = test: NCI in vitro DTP human cell line screen, ACHN; format: cell-based; settings: Renal Cancer, 1.00E−5 Molar
Method: as §1

SN12C = test: NCI in vitro DTP human cell line screen, SN12C; format: cell-based; settings: Renal Cancer, 1.00E−5 Molar
Method: as §1

NCI-H226 = test: NCI in vitro DTP human cell line screen, NCI-H226; format: cell-based; settings: Non-Small Cell Lung Cancer, 1.00E−5 Molar
Method: as §1

SNB-19 = test: NCI in vitro DTP human cell line screen, SNB-19; format: cell-based; settings: CNS Cancer, 1.00E−5 Molar
Method: as §1

SW-620 = test: NCI in vitro DTP human cell line screen, SW-620; format: cell-based; settings: Colon Cancer, 1.00E−5 Molar
Method: as §1

M14 = test: NCI in vitro DTP human cell line screen, M14; format: cell-based; settings: Melanoma, 1.00E−5 Molar
Method: as §1

COLO 205 = test: NCI in vitro DTP human cell line screen, COLO 205; format: cell-based; settings: Colon Cancer, 1.00E−5 Molar
Method: as §1

CAKI-1 = test: NCI in vitro DTP human cell line screen, CAKI-1; format: cell-based; settings: Renal Cancer, 1.00E−5 Molar
Method: as §1

HT29 = test: NCI in vitro DTP human cell line screen, HT29; format: cell-based; settings: Colon Cancer, 1.00E−5 Molar
Method: as §1

## Cc1cc(C)cc(Sc2ccc3c(=O)c4ccccc4sc3c2Cl)c1 [No. 14, 4-Chloro-3-(3,5-dimethylphenylthio)-9H-thioxanthen-9-one]
K562
  Growth Percent: 100.94%
A control cell lines
  cell viabilities of A control cell lines (MTT assay): 112 ± 8.03%
SNB-75
  Growth Percent: 84.85%
BT-549
  Growth Percent: 105.50%
UACC-62
  Growth Percent: 96.19%
RXF 393
  Growth Percent: 114.27%
NCI-H322M
  Growth Percent: 116.93%
SK-MEL-28
  Growth Percent: 117.96%
TK-10
  Growth Percent: 103.30%
UACC-257
  Growth Percent: 89.26%
SR
  Growth Percent: 86.99%
UO-31
  Growth Percent: 87.22%
MDA-MB-435
  Growth Percent: 99.38%
HL-60(TB)
  Growth Percent: 99.82%
NCI-H23
  Growth Percent: 92.54%
SF-295
  Growth Percent: 116.45%
PC-3
  Growth Percent: 97.92%
786-0
  Growth Percent: 110.62%
[1]
  viability: 104 ± 9.21%
HCT-15
  Growth Percent: 97.09%
OVCAR-4
  Growth Percent: 101.64%
SK-MEL-5
  Growth Percent: 104.23%
OVCAR-5
  Growth Percent: 98.39%
A3 cell lines
  cell viabilities of A3 cell lines (MTT assay): 113 ± 0.50%
MDA-MB-231/ATCC
  Growth Percent: 106.25%
EKVX
  Growth Percent: 96.66%
RPMI-8226
  Growth Percent: 101.54%
NCI-H460
  Growth Percent: 105.72%
MALME-3M
  Growth Percent: 102.39%
KM12
  Growth Percent: 109.61%
SK-OV-3
  Growth Percent: 103.14%
HS 578-T
  Growth Percent: 103.67%
T-47D
  Growth Percent: 100.87%
U251
  Growth Percent: 95.50%
NCI/ADR-RES
  Growth Percent: 101.13%
MDA-MB-468
  Growth Percent: 110.63%
OVCAR-3
  Growth Percent: 121.13%
IGROV1
  Growth Percent: 100.06%
SF-539
  Growth Percent: 105.19%
LOX IMVI
  Growth Percent: 96.06%
SF-268
  Growth Percent: 104.92%
HCT-116
  Growth Percent: 93.28%
60 cancer lines
  Growth Percent, Mean: 101.73%
DU145
  Growth Percent: 118.42%
NCI-H522
  Growth Percent: 91.47%
MCF7
  Growth Percent: 94.94%
MOLT-4
  Growth Percent: 99.59%
HCC-2998
  Growth Percent: 101.80%
OVCAR-8
  Growth Percent: 97.95%
SK-MEL-2
  Growth Percent: 100.30%
ACHN
  Growth Percent: 98.35%
SN12C
  Growth Percent: 101.79%
NCI-H226
  Growth Percent: 97.38%
SNB-19
  Growth Percent: 108.53%
SW-620
  Growth Percent: 104.39%
M14
  Growth Percent: 107.60%
COLO 205
  Growth Percent: 108.10%
CAKI-1
  Growth Percent: 90.10%
HT29
  Growth Percent: 95.28%

From patent publication US8410161B2, “Thioxanthone ring system derivatives” (National Defense Medical Center, priority 2010, dated 2013)
